Assay results published in patent US20150190440A1, “BLOOD PRESSURE REDUCING COMPOSITION FABRICATED BY USING MONASCUS PURPUREUS NTU 568 AND PRIMER FOR THE MONASCUS PURPUREUS NTU 568” (Sunway Biotech Co., LTD, priority 2014, published 2015).

Key:
Type in all cases: in vivo, rat
[1] = test system: Spontaneous hypertensive rats (SHRs); experiment: Kidney function, electrolytes and creatine phosphokinase indexes of SHRs; conditions: M: SHR, amlodipine 0.4 mgkg-1day-1
Source text: (§1) Spontaneous hypertensive rats (SHRs) and Wistar-Kyoto strains of normotensive rats (WKYs) are chosen to be experiment animals, wherein the SHRs would spontaneously suffer from the hypertension when they grow to 5˜6 weeks old. Herein, 8-week old SHRs are used for carrying out the experiments, and these 8-week old SHRs and WKYs are pre-fed with chew diet and water for 5 weeks before starting the experiments. Herein, it needs to further explain that, the experiment groups listed in Table 6 are divided to 9 groups. The rats in the 9 groups are fed with the main feeding stuffs (i.e., chew diet and water) during first week to 13-th week. Moreover, the rats in the 9 groups are fed with the main feeding stuffs as well as the extract feeding stuffs at 14-th week in order to accomplish one single oral administration experiments; therefore, the rats in the 9 groups are continuously fed with the main feeding stuffs as well as the extract feeding stuffs starting from 14-th week and continuing for 8 weeks, so as to carry out one chronic administration experiment. The designed experiment groups consist of:
Continuously, please refer to following Table 12, which record the data of kidney function indexes, electrolytes indexes and creatine phosphokinase indexes of SHRs and WKYs in the experiment groups listed in Table 6. From Table 12, it can find that the kidney function indexes, the electrolytes indexes and the creatine phosphokinase indexes of SHRs in 1R, 5R, 1RM, and 5RM groups are normal comparing to the kidney function indexes, the electrolytes indexes and the creatine phosphokinase indexes of SHRs in C group. Moreover, the kidney function indexes, the electrolytes indexes and the creatine phosphokinase indexes of SHRs in W1R and W5R groups are normal comparing to the kidney function indexes, the electrolytes indexes and the creatine phosphokinase indexes of WKYs in WC group. Wherein the kidney function indexes include blood urea nitrogen (BUN), creatinine and uric acid, and the electrolytes indexes include sodium and potassium. […] It is well know that, when the kidney is at a kidney failure situation, the concentration of creatinine and uric acid in blood serum would increase. […] It is well know that, when the muscle is subject to damage, the concentration of CPK in blood serum would increase.

[2] = test system: Spontaneous hypertensive rats (SHRs); experiment: Blood pressure after one single oral administration in SHRs; conditions: M: SHR
Source text: (§2) Spontaneous hypertensive rats (SHRs) and Wistar-Kyoto strains of normotensive rats (WKYs) are chosen to be experiment animals, wherein the SHRs would spontaneously suffer from the hypertension when they grow to 5˜6 weeks old. Herein, 8-week old SHRs are used for carrying out the experiments, and these 8-week old SHRs and WKYs are pre-fed with chew diet and water for 5 weeks before starting the experiments. […] The rats in the 9 groups are fed with the main feeding stuffs (i.e., chew diet and water) during first week to 13-th week. Moreover, the rats in the 9 groups are fed with the main feeding stuffs as well as the extract feeding stuffs at 14-th week in order to accomplish one single oral administration experiments; therefore, the rats in the 9 groups are continuously fed with the main feeding stuffs as well as the extract feeding stuffs starting from 14-th week and continuing for 8 weeks, so as to carry out one chronic administration experiment.
According to the body surface area (BSA) equation provided by Food and Drug Administration (FDA), the BSA of a standard person with the body height of 170 cm and the body weight of 65 kg can be calculated through the mathematical calculation formula of BSA (m^2)=0.003207{H^0.3×W^[0.07285−(0.0188×LOG (w))]}, wherein the BSA value obtained from aforesaid calculation formula for the standard person is 1.762 m^2. On the other hand, the BSA value for the SHRs can also be calculated through the mathematical calculation formula of BSA (m^2) (8.99 W^0.6899)/100, and the BSA value is 0.049 m^2. Moreover, because the experiments use “2.2 g” as a standard feeding dosage, the “1-fold” in Table 6 can be calculated to 176 mgkg^−1day^−1 according to BSA value of the SHRs. Herein, it needs to further explain that, M group is taken as a positive control group because amlodipine is a well-known blood pressure lowering substance. In the experiments, the lowest effective dosage (i.e., 1-fold dosage) for amlodipine is defined to 0.4 mgkg^−1day^−1.

[3] = test system: Spontaneous hypertensive rats (SHRs); experiment: Blood lipids of SHRs; conditions: M: SHR, amlodipine 0.4 mgkg-1day-1
Source text: as §1, with “experiment.” for “experiment. The designed experiment groups consist of:”

[4] = test system: Spontaneous hypertensive rats (SHRs); experiment: Blood pressure in 8-week chronic administration experiment in SHRs; conditions: M: SHR
Source text: as §2
Moreover, because the experiments use “2.2 g” as a standard feeding dosage, the “1-fold” in Table 6 can be calculated to 176 mgkg^−1day^−1 according to BSA value of the SHRs. Herein, it needs to further explain that, M group is taken as a positive control group because amlodipine is a well-known blood pressure lowering substance. In the experiments, the lowest effective dosage (i.e., 1-fold dosage) for amlodipine is defined to 0.4 mgkg^−1day^−1.

[5] = test system: Spontaneous hypertensive rats (SHRs); experiment: Heart rate of SHRs; conditions: M: SHR, amlodipine 0.4 mgkg-1day-1
Source text: as §1
Continuously, please refer to following Table 10, which record the heart rate data of SHRs and WKYs in the experiment groups listed in Table 6. From Table 10, it can find that the heart rate of SHRs in 1R, 5R, 1RM, and 5RM groups are normal comparing to the heart rate of SHRs in C group. Moreover, the heart rate of SHRs in W1R and W5R groups are normal comparing to the heart rate of WKYs in WC group.

[6] = test system: Spontaneous hypertensive rats (SHRs); experiment: Liver function indexes of SHRs; conditions: M: SHR, amlodipine 0.4 mgkg-1day-1
Source text: as §1
With reference to following Table 11, which record the liver function indexes data of SHRs and WKYs in the experiment groups listed in Table 6. […] Wherein the liver function indexes data include: aspartate aminotransferase (AST), alanine aminotransferase (ALT), alkaline phosphatase, albumin, globulin, γ-Glutamyltransferase (γ-GT), total protein, and A/G ratio.

[7] = amlodipine 0.4 mgkg-1day-1, 0 hr
[8] = amlodipine 0.4 mgkg-1day-1, 4 hr
[9] = amlodipine 0.4 mgkg-1day-1, 8 hr
[10] = amlodipine 0.4 mgkg-1day-1, 24 hr
[11] = amlodipine 0.4 mgkg-1day-1, 0 week
[12] = amlodipine 0.4 mgkg-1day-1, 2 week
[13] = amlodipine 0.4 mgkg-1day-1, 4 week
[14] = amlodipine 0.4 mgkg-1day-1, 6 week
[15] = amlodipine 0.4 mgkg-1day-1, 8 week

CCOC(=O)C1=C(COCCN)NC(C)=C(C(=O)OC)C1c1ccccc1Cl (centres unmarked) [amlodipine]
BUN [1]: 23.7 ± 0.8 mg/dL | Creatinine [1]: 0.48 ± 0.1 mg/dL | Creatinine phosphokinase [1]: 287.0 ± 12.2 U/L | Potassium [1]: 8.8 ± 0.4 meq/L | Sodium [1]: 152.4 ± 0.9 meq/L | Uric acid [1]: 5.8 ± 0.6 mg/dL | DBP [2, 7]: 143 ± 2.9 mmHg | SBP [2, 7]: 180 ± 3.6 mmHg | DBP [2, 8]: 143 ± 3.8 mmHg | SBP [2, 8]: 178 ± 5.4 mmHg | DBP [2, 9]: 134 ± 4.9 mmHg | SBP [2, 9]: 171 ± 3.1 mmHg | DBP [2, 10]: 137 ± 4.2 mmHg | SBP [2, 10]: 175 ± 7.6 mmHg | Cholesterol [3]: 79.8 ± 3.6 mg/dL | Cholesterol/HDL-C [3]: 1.3 ± 0.1 | HDL-C [3]: 60.3 ± 1.9 mg/dL | LDL-C [3]: 10.0 ± 0.7 mg/dL | Triacylglycerol [3]: 69.3 ± 6.8 mg/dL | DBP [4, 11]: 143 ± 2.9 mmHg | SBP [4, 11]: 180 ± 3.6 mmHg | DBP [4, 12]: 145 ± 3.6 mmHg | SBP [4, 12]: 178 ± 5.4 mmHg | DBP [4, 13]: 140 ± 3.8 mmHg | SBP [4, 13]: 171 ± 3.1 mmHg | DBP [4, 14]: 139 ± 1.9 mmHg | SBP [4, 14]: 175 ± 7.6 mmHg | DBP [4, 15]: 135 ± 2.7 mmHg | SBP [4, 15]: 175 ± 7.6 mmHg | Heart rate ([5]; 0 hr): 402 ± 6.9 bpm | Heart rate ([5]; 2 week): 402 ± 6.7 bpm | Heart rate ([5]; 4 week): 404 ± 4.8 bpm | Heart rate ([5]; 6 week): 403 ± 6.1 bpm | Heart rate ([5]; 8 week): 402 ± 3.0 bpm | Heart rate ([5]; 4 hr): 401 ± 6.5 bpm | Heart rate ([5]; 8 hr): 400 ± 4.8 bpm | Heart rate ([5]; 24 hr): 402 ± 4.9 bpm | A/G ratio [6]: 2.1 ± 0.4 | ALT [6]: 85.7 ± 6.1 U/L | AST [6]: 125.8 ± 4.6 U/L | Albumin [6]: 5.4 ± 0.2 g/dL | Alkaline phosphatase [6]: 143.3 ± 7.6 IU/L | Globulin [6]: 2.6 ± 0.1 g/dL | Total protein [6]: 8.2 ± 0.1 g/dL
